Test results as given in patent US11034650B2, “Compounds useful for treating a Mannheimia haemolytica or Histophilus somni infection” (Intervet Inc., priority 2016, dated 2021).
≈ marks a conversion by molar mass, not a printed value.

Each molecule was assayed on Mannheimia haemolytica MH 12587 (1071, BRD field isolate, macrolide-resistance: erm+, E+) (assay: MIC, broth-microdilution (CLSI VET01-A4), strain MH 12587). Conditions: Mannheimia haemolytica strain MH 12587, broth-microdilution; unit assumed.
Assay type: cell-based
Procedure, shortened: (§1)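 Growth inhibition is scored visually on a doubling dilution series. The reported MIC corresponds to the lowest concentration free of turbidity, with results assessed under CLSI VET01-S3.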

SMILES	MIC MH 12587 [µg/mL]
O=C(N[C@@H](CO)C(=O)NO)c1ccc(C#Cc2ccc(CNCc3ccc(Cl)cc3)cc2)cc1 [Compound 87]	6.3 (≈ 13.2 µM)
CC[C@H](C)[C@H](NC(=O)c1ccc(C#Cc2ccc(CNCc3ccc(Cl)cc3)cc2)cc1)C(=O)NO [Compound 128]	12.5 (≈ 24.8 µM)
CC(C)NCc1ccc(C#Cc2ccc(C(=O)N[C@H](C(=O)NO)C(C)C)cc2)cc1 [Compound 93]	12.5 (≈ 30.7 µM)
CC(C)[C@H](NC(=O)c1ccc(C#Cc2ccc(CNCC#N)cc2)cc1)C(=O)NO [Compound 204]	0.8 (≈ 1.98 µM)
C=CCNCc1ccc(C#Cc2ccc(C(=O)N[C@@H](CO)C(=O)NO)cc2)cc1 [Compound 73]	6.3 (≈ 16 µM)
O=C(N[C@@H](CO)C(=O)NO)c1ccc(C#Cc2ccc(CN3CCOCC3)cc2)cc1 [Compound 77]	3.1 (≈ 7.32 µM)
CC(C)[C@H](NC(=O)c1ccc(C#Cc2ccc(CN3CCCOCC3)cc2)cc1)C(=O)NO [Compound 202]	3.1 (≈ 6.9 µM)
Cc1ccc(CNCc2ccc(C#Cc3ccc(C(=O)N[C@H](C(=O)NO)C(C)C)cc3)cc2)cc1C [Compound 111]	12.5 (≈ 25.8 µM)

The molecules below were run on Mannheimia haemolytica MH 13065 (XB0446-6003.9, BRD field isolate) (assay: MIC, broth-microdilution (CLSI VET01-A4), strain MH 13065). Conditions: Mannheimia haemolytica strain MH 13065, broth-microdilution; unit assumed.
Assay type: cell-based
Procedure, shortened: as §1

SMILES	MIC MH 13065 [µg/mL]
O=C(N[C@@H](CO)C(=O)NO)c1ccc(C#Cc2ccc(CNCc3ccc(Cl)cc3)cc2)cc1 [Compound 87]	3.1 (≈ 6.49 µM)
CC[C@H](C)[C@H](NC(=O)c1ccc(C#Cc2ccc(CNCc3ccc(Cl)cc3)cc2)cc1)C(=O)NO [Compound 128]	3.1 (≈ 6.15 µM)
CC(C)NCc1ccc(C#Cc2ccc(C(=O)N[C@H](C(=O)NO)C(C)C)cc2)cc1 [Compound 93]	6.3 (≈ 15.5 µM)
CC(C)[C@H](NC(=O)c1ccc(C#Cc2ccc(CNCC#N)cc2)cc1)C(=O)NO [Compound 204]	0.2 (≈ 0.494 µM)
C=CCNCc1ccc(C#Cc2ccc(C(=O)N[C@@H](CO)C(=O)NO)cc2)cc1 [Compound 73]	3.1 (≈ 7.88 µM)
O=C(N[C@@H](CO)C(=O)NO)c1ccc(C#Cc2ccc(CN3CCOCC3)cc2)cc1 [Compound 77]	3.1 (≈ 7.32 µM)
CC(C)[C@H](NC(=O)c1ccc(C#Cc2ccc(CN3CCCOCC3)cc2)cc1)C(=O)NO [Compound 202]	1.6 (≈ 3.56 µM)
Cc1ccc(CNCc2ccc(C#Cc3ccc(C(=O)N[C@H](C(=O)NO)C(C)C)cc3)cc2)cc1C [Compound 111]	3.1 (≈ 6.41 µM)

The molecules below were run on Mannheimia haemolytica MH 13093 (XB0472-6014.1, BRD field isolate) (assay: MIC, broth-microdilution (CLSI VET01-A4), strain MH 13093). Conditions: Mannheimia haemolytica strain MH 13093, broth-microdilution; unit assumed.
Assay type: cell-based
Procedure, shortened: as §1

SMILES	MIC MH 13093 [µg/mL]
O=C(N[C@@H](CO)C(=O)NO)c1ccc(C#Cc2ccc(CNCc3ccc(Cl)cc3)cc2)cc1 [Compound 87]	3.1 (≈ 6.49 µM)
CC[C@H](C)[C@H](NC(=O)c1ccc(C#Cc2ccc(CNCc3ccc(Cl)cc3)cc2)cc1)C(=O)NO [Compound 128]	6.3 (≈ 12.5 µM)
CC(C)NCc1ccc(C#Cc2ccc(C(=O)N[C@H](C(=O)NO)C(C)C)cc2)cc1 [Compound 93]	12.5 (≈ 30.7 µM)
CC(C)[C@H](NC(=O)c1ccc(C#Cc2ccc(CNCC#N)cc2)cc1)C(=O)NO [Compound 204]	0.4 (≈ 0.989 µM)
C=CCNCc1ccc(C#Cc2ccc(C(=O)N[C@@H](CO)C(=O)NO)cc2)cc1 [Compound 73]	3.1 (≈ 7.88 µM)
O=C(N[C@@H](CO)C(=O)NO)c1ccc(C#Cc2ccc(CN3CCOCC3)cc2)cc1 [Compound 77]	3.1 (≈ 7.32 µM)
CC(C)[C@H](NC(=O)c1ccc(C#Cc2ccc(CN3CCCOCC3)cc2)cc1)C(=O)NO [Compound 202]	1.6 (≈ 3.56 µM)
Cc1ccc(CNCc2ccc(C#Cc3ccc(C(=O)N[C@H](C(=O)NO)C(C)C)cc3)cc2)cc1C [Compound 111]	3.1 (≈ 6.41 µM)

These molecules were tested on Pasteurella multocida PM 6267 (P 2225 (L386), reference strain, mouse infection strain) (assay: MIC, broth-microdilution (CLSI VET01-A4), strain PM 6267). Conditions: Pasteurella multocida strain PM 6267, broth-microdilution; unit assumed.
Assay type: cell-based
Procedure, shortened: as §1

SMILES	MIC PM 6267 [µg/mL]
O=C(N[C@@H](CO)C(=O)NO)c1ccc(C#Cc2ccc(CNCc3ccc(Cl)cc3)cc2)cc1 [Compound 87]	0.2 (≈ 0.418 µM)
CC[C@H](C)[C@H](NC(=O)c1ccc(C#Cc2ccc(CNCc3ccc(Cl)cc3)cc2)cc1)C(=O)NO [Compound 128]	3.1 (≈ 6.15 µM)
CC(C)NCc1ccc(C#Cc2ccc(C(=O)N[C@H](C(=O)NO)C(C)C)cc2)cc1 [Compound 93]	≤ 0.1
CC(C)[C@H](NC(=O)c1ccc(C#Cc2ccc(CNCC#N)cc2)cc1)C(=O)NO [Compound 204]	≤ 0.1
C=CCNCc1ccc(C#Cc2ccc(C(=O)N[C@@H](CO)C(=O)NO)cc2)cc1 [Compound 73]	0.4 (≈ 1.02 µM)
O=C(N[C@@H](CO)C(=O)NO)c1ccc(C#Cc2ccc(CN3CCOCC3)cc2)cc1 [Compound 77]	≤ 0.1
CC(C)[C@H](NC(=O)c1ccc(C#Cc2ccc(CN3CCCOCC3)cc2)cc1)C(=O)NO [Compound 202]	≤ 0.1
Cc1ccc(CNCc2ccc(C#Cc3ccc(C(=O)N[C@H](C(=O)NO)C(C)C)cc3)cc2)cc1C [Compound 111]	0.8 (≈ 1.65 µM)

These molecules were tested on Pasteurella multocida PM 12080 (IV102277-0093, BRD field isolate) (assay: MIC, broth-microdilution (CLSI VET01-A4), strain PM 12080). Conditions: Pasteurella multocida strain PM 12080, broth-microdilution; unit assumed.
Assay type: cell-based
Procedure, shortened: as §1

SMILES	MIC PM 12080 [µg/mL]
O=C(N[C@@H](CO)C(=O)NO)c1ccc(C#Cc2ccc(CNCc3ccc(Cl)cc3)cc2)cc1 [Compound 87]	1.6 (≈ 3.35 µM)
CC[C@H](C)[C@H](NC(=O)c1ccc(C#Cc2ccc(CNCc3ccc(Cl)cc3)cc2)cc1)C(=O)NO [Compound 128]	3.1 (≈ 6.15 µM)
CC(C)NCc1ccc(C#Cc2ccc(C(=O)N[C@H](C(=O)NO)C(C)C)cc2)cc1 [Compound 93]	1.6 (≈ 3.93 µM)
CC(C)[C@H](NC(=O)c1ccc(C#Cc2ccc(CNCC#N)cc2)cc1)C(=O)NO [Compound 204]	≤ 0.1
C=CCNCc1ccc(C#Cc2ccc(C(=O)N[C@@H](CO)C(=O)NO)cc2)cc1 [Compound 73]	1.6 (≈ 4.07 µM)
O=C(N[C@@H](CO)C(=O)NO)c1ccc(C#Cc2ccc(CN3CCOCC3)cc2)cc1 [Compound 77]	0.8 (≈ 1.89 µM)
CC(C)[C@H](NC(=O)c1ccc(C#Cc2ccc(CN3CCCOCC3)cc2)cc1)C(=O)NO [Compound 202]	≤ 0.1
Cc1ccc(CNCc2ccc(C#Cc3ccc(C(=O)N[C@H](C(=O)NO)C(C)C)cc3)cc2)cc1C [Compound 111]	1.6 (≈ 3.31 µM)

What follows are molecules tested on Pasteurella multocida PM 10775 (080130003051, BRD field isolate) (assay: MIC, broth-microdilution (CLSI VET01-A4), strain PM 10775). Conditions: Pasteurella multocida strain PM 10775, broth-microdilution; unit assumed.
Assay type: cell-based
Procedure, shortened: as §1

SMILES	MIC PM 10775 [µg/mL]
O=C(N[C@@H](CO)C(=O)NO)c1ccc(C#Cc2ccc(CNCc3ccc(Cl)cc3)cc2)cc1 [Compound 87]	≤ 0.1
CC[C@H](C)[C@H](NC(=O)c1ccc(C#Cc2ccc(CNCc3ccc(Cl)cc3)cc2)cc1)C(=O)NO [Compound 128]	0.4 (≈ 0.794 µM)
CC(C)NCc1ccc(C#Cc2ccc(C(=O)N[C@H](C(=O)NO)C(C)C)cc2)cc1 [Compound 93]	≤ 0.1
CC(C)[C@H](NC(=O)c1ccc(C#Cc2ccc(CNCC#N)cc2)cc1)C(=O)NO [Compound 204]	≤ 0.1
C=CCNCc1ccc(C#Cc2ccc(C(=O)N[C@@H](CO)C(=O)NO)cc2)cc1 [Compound 73]	≤ 0.1
O=C(N[C@@H](CO)C(=O)NO)c1ccc(C#Cc2ccc(CN3CCOCC3)cc2)cc1 [Compound 77]	≤ 0.1
CC(C)[C@H](NC(=O)c1ccc(C#Cc2ccc(CN3CCCOCC3)cc2)cc1)C(=O)NO [Compound 202]	≤ 0.1
Cc1ccc(CNCc2ccc(C#Cc3ccc(C(=O)N[C@H](C(=O)NO)C(C)C)cc3)cc2)cc1C [Compound 111]	0.4 (≈ 0.827 µM)

The molecules below were run on Mannheimia haemolytica MH 10720 (154, BRD field isolate) (assay: MIC, broth-microdilution (CLSI VET01-A4), strain MH 10720). Conditions: Mannheimia haemolytica strain MH 10720, broth-microdilution; unit assumed.
Assay type: cell-based
Procedure, shortened: as §1

SMILES	MIC MH 10720 [µg/mL]
O=C(N[C@@H](CO)C(=O)NO)c1ccc(C#Cc2ccc(CNCc3ccc(Cl)cc3)cc2)cc1 [Compound 87]	1.6 (≈ 3.35 µM)
CC[C@H](C)[C@H](NC(=O)c1ccc(C#Cc2ccc(CNCc3ccc(Cl)cc3)cc2)cc1)C(=O)NO [Compound 128]	0.8 (≈ 1.59 µM)
CC(C)NCc1ccc(C#Cc2ccc(C(=O)N[C@H](C(=O)NO)C(C)C)cc2)cc1 [Compound 93]	3.1 (≈ 7.61 µM)
CC(C)[C@H](NC(=O)c1ccc(C#Cc2ccc(CNCC#N)cc2)cc1)C(=O)NO [Compound 204]	≤ 0.1
C=CCNCc1ccc(C#Cc2ccc(C(=O)N[C@@H](CO)C(=O)NO)cc2)cc1 [Compound 73]	3.1 (≈ 7.88 µM)
O=C(N[C@@H](CO)C(=O)NO)c1ccc(C#Cc2ccc(CN3CCOCC3)cc2)cc1 [Compound 77]	0.8 (≈ 1.89 µM)
CC(C)[C@H](NC(=O)c1ccc(C#Cc2ccc(CN3CCCOCC3)cc2)cc1)C(=O)NO [Compound 202]	0.2 (≈ 0.445 µM)
Cc1ccc(CNCc2ccc(C#Cc3ccc(C(=O)N[C@H](C(=O)NO)C(C)C)cc3)cc2)cc1C [Compound 111]	0.8 (≈ 1.65 µM)

Each molecule was assayed on Mannheimia haemolytica MH 6374 (ATCC 33396, reference strain) (assay: MIC, broth-microdilution (CLSI VET01-A4), strain MH 6374). Conditions: Mannheimia haemolytica strain MH 6374, broth-microdilution; unit assumed.
Assay type: cell-based
Procedure, shortened: as §1

SMILES	MIC MH 6374 [µg/mL]
O=C(N[C@@H](CO)C(=O)NO)c1ccc(C#Cc2ccc(CNCc3ccc(Cl)cc3)cc2)cc1 [Compound 87]	0.8 (≈ 1.67 µM)
CC[C@H](C)[C@H](NC(=O)c1ccc(C#Cc2ccc(CNCc3ccc(Cl)cc3)cc2)cc1)C(=O)NO [Compound 128]	3.1 (≈ 6.15 µM)
CC(C)NCc1ccc(C#Cc2ccc(C(=O)N[C@H](C(=O)NO)C(C)C)cc2)cc1 [Compound 93]	6.3 (≈ 15.5 µM)
CC(C)[C@H](NC(=O)c1ccc(C#Cc2ccc(CNCC#N)cc2)cc1)C(=O)NO [Compound 204]	0.4 (≈ 0.989 µM)
C=CCNCc1ccc(C#Cc2ccc(C(=O)N[C@@H](CO)C(=O)NO)cc2)cc1 [Compound 73]	3.1 (≈ 7.88 µM)
O=C(N[C@@H](CO)C(=O)NO)c1ccc(C#Cc2ccc(CN3CCOCC3)cc2)cc1 [Compound 77]	1.6 (≈ 3.78 µM)
CC(C)[C@H](NC(=O)c1ccc(C#Cc2ccc(CN3CCCOCC3)cc2)cc1)C(=O)NO [Compound 202]	3.1 (≈ 6.9 µM)
Cc1ccc(CNCc2ccc(C#Cc3ccc(C(=O)N[C@H](C(=O)NO)C(C)C)cc3)cc2)cc1C [Compound 111]	3.1 (≈ 6.41 µM)

What follows are molecules tested on Mannheimia haemolytica MH 6357 (M7/2, reference strain, cattle infection strain) (assay: MIC, broth-microdilution (CLSI VET01-A4), strain MH 6357). Conditions: Mannheimia haemolytica strain MH 6357, broth-microdilution; unit assumed.
Assay type: cell-based
Procedure, shortened: as §1

SMILES	MIC MH 6357 [µg/mL]
O=C(N[C@@H](CO)C(=O)NO)c1ccc(C#Cc2ccc(CNCc3ccc(Cl)cc3)cc2)cc1 [Compound 87]	3.1 (≈ 6.49 µM)
CC[C@H](C)[C@H](NC(=O)c1ccc(C#Cc2ccc(CNCc3ccc(Cl)cc3)cc2)cc1)C(=O)NO [Compound 128]	3.1 (≈ 6.15 µM)
CC(C)NCc1ccc(C#Cc2ccc(C(=O)N[C@H](C(=O)NO)C(C)C)cc2)cc1 [Compound 93]	6.3 (≈ 15.5 µM)
CC(C)[C@H](NC(=O)c1ccc(C#Cc2ccc(CNCC#N)cc2)cc1)C(=O)NO [Compound 204]	0.4 (≈ 0.989 µM)
C=CCNCc1ccc(C#Cc2ccc(C(=O)N[C@@H](CO)C(=O)NO)cc2)cc1 [Compound 73]	3.1 (≈ 7.88 µM)
O=C(N[C@@H](CO)C(=O)NO)c1ccc(C#Cc2ccc(CN3CCOCC3)cc2)cc1 [Compound 77]	6.3 (≈ 14.9 µM)
CC(C)[C@H](NC(=O)c1ccc(C#Cc2ccc(CN3CCCOCC3)cc2)cc1)C(=O)NO [Compound 202]	0.8 (≈ 1.78 µM)
Cc1ccc(CNCc2ccc(C#Cc3ccc(C(=O)N[C@H](C(=O)NO)C(C)C)cc3)cc2)cc1C [Compound 111]	3.1 (≈ 6.41 µM)
